Test results reported in PubChem BioAssay AID1259407 (Chemical Carcinogenesis Research Information System (CCRIS), 2018).
Activity calls are given as the source filed them. No rule for the calls is given here.

System: CCRIS mutagenicity, Ames/micronucleus/aberration tests
Assay: CCRIS mutagenicity studies
[1] = Test System: AMES SALMONELLA TYPHIMURIUM, Strain/Indicator: TA98, Metabolic Activation: NONE, Method: STANDARD PLATE
[2] = Test System: AMES SALMONELLA TYPHIMURIUM, Strain/Indicator: TA100, Metabolic Activation: NONE, Method: STANDARD PLATE
[3] = Test System: AMES SALMONELLA TYPHIMURIUM, Strain/Indicator: TA1537, Metabolic Activation: NONE, Method: STANDARD PLATE
[4] = Test System: AMES SALMONELLA TYPHIMURIUM, Strain/Indicator: TA1538, Metabolic Activation: NONE, Method: STANDARD PLATE
[5] = Test System: AMES SALMONELLA TYPHIMURIUM, Strain/Indicator: TA98, Metabolic Activation: RAT, LIVER, S-9, AROCLOR 1254, Method: STANDARD PLATE
[6] = Test System: AMES SALMONELLA TYPHIMURIUM, Strain/Indicator: TA100, Metabolic Activation: RAT, LIVER, S-9, AROCLOR 1254, Method: STANDARD PLATE
[7] = Test System: AMES SALMONELLA TYPHIMURIUM, Strain/Indicator: TA1535, Metabolic Activation: NONE, Method: STANDARD PLATE
[8] = Test System: AMES SALMONELLA TYPHIMURIUM, Strain/Indicator: TA1535, Metabolic Activation: RAT, LIVER, S-9, AROCLOR 1254, Method: STANDARD PLATE
[9] = Test System: AMES SALMONELLA TYPHIMURIUM, Strain/Indicator: TA1537, Metabolic Activation: RAT, LIVER, S-9, AROCLOR 1254, Method: STANDARD PLATE
[10] = Test System: AMES SALMONELLA TYPHIMURIUM, Strain/Indicator: TA1538, Metabolic Activation: RAT, LIVER, S-9, AROCLOR 1254, Method: STANDARD PLATE

CC(=O)Nc1cc2c(cc1[N+](=O)[O-])[nH]c1ccccc12
mutagenic call [1]: active; positive | mutagenic call (Test System: AMES SALMONELLA TYPHIMURIUM, Strain/Indicator: TA98, Metabolic Activation: RAT, LIVER, S-9, PHENOBARBITAL, Method: STANDARD PLATE): active; positive | mutagenic call [2]: inactive; negative | mutagenic call (Test System: AMES SALMONELLA TYPHIMURIUM, Strain/Indicator: TA100, Metabolic Activation: RAT, LIVER, S-9, PHENOBARBITAL, Method: STANDARD PLATE): inactive; negative | mutagenic call [3]: inactive; negative | mutagenic call (Test System: AMES SALMONELLA TYPHIMURIUM, Strain/Indicator: TA1537, Metabolic Activation: RAT, LIVER, S-9, PHENOBARBITAL, Method: STANDARD PLATE): inactive; negative | mutagenic call [4]: active; positive | mutagenic call (Test System: AMES SALMONELLA TYPHIMURIUM, Strain/Indicator: TA1538, Metabolic Activation: RAT, LIVER, S-9, PHENOBARBITAL, Method: STANDARD PLATE): active; positive | mutagenic call (Test System: AMES SALMONELLA TYPHIMURIUM, Strain/Indicator: TA1977, Metabolic Activation: NONE, Method: STANDARD PLATE): inactive; negative | mutagenic call (Test System: AMES SALMONELLA TYPHIMURIUM, Strain/Indicator: TA1977, Metabolic Activation: RAT, LIVER, S-9, PHENOBARBITAL, Method: STANDARD PLATE): inactive; negative

O=[N+]([O-])c1cc(C(F)(F)F)cc([N+](=O)[O-])c1Cl
mutagenic call [1]: inactive; negative | mutagenic call [5]: inactive; negative | mutagenic call [2]: inactive; negative | mutagenic call [6]: inactive; negative | mutagenic call [7]: inactive; negative | mutagenic call [8]: inactive; negative | mutagenic call [3]: inactive; negative | mutagenic call [9]: inactive; negative | mutagenic call [4]: inactive; negative | mutagenic call [10]: inactive; negative

O=C(O)CO.[NH2-].[NH2-].[Pt+2]
mutagenic call (Test System: AMES SALMONELLA TYPHIMURIUM, Strain/Indicator: TA98, Metabolic Activation: NONE, Method: PREINCUBATION): active; positive | mutagenic call (Test System: AMES SALMONELLA TYPHIMURIUM, Strain/Indicator: TA98, Metabolic Activation: RAT, LIVER, S-9, PHENOBARBITAL AND 5,6-BENZOFLAVONE, Method: PREINCUBATION): active; positive | mutagenic call (Test System: AMES SALMONELLA TYPHIMURIUM, Strain/Indicator: TA100, Metabolic Activation: NONE, Method: PREINCUBATION): active; positive | mutagenic call (Test System: AMES SALMONELLA TYPHIMURIUM, Strain/Indicator: TA100, Metabolic Activation: RAT, LIVER, S-9, PHENOBARBITAL AND 5,6-BENZOFLAVONE, Method: PREINCUBATION): active; positive | mutagenic call (Test System: AMES SALMONELLA TYPHIMURIUM, Strain/Indicator: TA1535, Metabolic Activation: NONE, Method: PREINCUBATION): inactive; negative | mutagenic call (Test System: AMES SALMONELLA TYPHIMURIUM, Strain/Indicator: TA1535, Metabolic Activation: RAT, LIVER, S-9, PHENOBARBITAL AND 5,6-BENZOFLAVONE, Method: PREINCUBATION): inactive; negative | mutagenic call (Test System: AMES SALMONELLA TYPHIMURIUM, Strain/Indicator: TA1537, Metabolic Activation: NONE, Method: PREINCUBATION): inactive; negative | mutagenic call (Test System: AMES SALMONELLA TYPHIMURIUM, Strain/Indicator: TA1537, Metabolic Activation: RAT, LIVER, S-9, PHENOBARBITAL AND 5,6-BENZOFLAVONE, Method: PREINCUBATION): inactive; negative | mutagenic call (Test System: E.COLI, Strain/Indicator: WP2 UVRA, Metabolic Activation: NONE, Method: PREINCUBATION): inactive; negative | mutagenic call (Test System: E.COLI, Strain/Indicator: WP2 UVRA, Metabolic Activation: RAT, LIVER, S-9 PHENOBARBITAL AND 5,6-BENZOFLAVONE, Method: PREINCUBATION): inactive; negative

c1ccc([As+](c2ccccc2)(c2ccccc2)c2ccccc2)cc1
mutagenic call (Test System: Mouse lymphoma, Strain/Indicator: L5178Y (TK+/TK-), Metabolic Activation: None, Method: Microwell): inactive; negative

O=S1(=O)OC(c2cc(Br)c(O)c(Br)c2)(c2cc(Br)c(O)c(Br)c2)c2c(Br)c(Br)c(Br)c(Br)c21
mutagenic call [1]: inactive; negative | mutagenic call [5]: inactive; negative | mutagenic call [2]: inactive; negative | mutagenic call [6]: inactive; negative | mutagenic call [7]: inactive; negative | mutagenic call [8]: inactive; negative | mutagenic call [3]: inactive; negative | mutagenic call [9]: inactive; negative | mutagenic call [4]: inactive; negative | mutagenic call [10]: inactive; negative | mutagenic call (Test System: MOUSE LYMPHOMA, Strain/Indicator: L5178Y (TK+/TK-), Metabolic Activation: NONE, Method: SUSPENSION/PLATE): inactive; negative | mutagenic call (Test System: MOUSE LYMPHOMA, Strain/Indicator: L5178Y (TK+/TK-), Metabolic Activation: RAT, LIVER, S-9, AROCLOR 1254, Method: SUSPENSION/PLATE): inactive; negative

O=C(CC(O)(CC(=O)OCCBr)C(=O)OCCBr)OCCBr
mutagenic call [2]: inactive; negative | mutagenic call [6]: active; positive

O=Nc1ccc2ccc3c4c(cc5ccc1c2c53)CCCC4
mutagenic call [1]: active; positive

O=C(/C=C/c1ccccc1O)c1ccc(O)cc1O
mutagenic call (Test System: Ames Salmonella typhimurium, Strain/Indicator: TA102, Metabolic Activation: None, Method: Preincubation): inactive; negative | mutagenic call (Test System: Ames Salmonella typhimurium, Strain/Indicator: TA102, Metabolic Activation: Rat, Liver, S-9, Aroclor 1254 in 0.154 M KCl, Method: Preincubation): inactive; negative
